Data on twelve compounds can be found in US12202835B2, “Substituted aromatic ring-linked dioxinoquinazolines and dioxinoquinolines as kinase inhibitors” (BEIJING SCITECH-MQ PHARMACEUTICALS LIMITED, priority 2018, dated 2025).

For orientation: IC50 means the concentration that gives 50% inhibition.

One assay has as its target TRKA kinase (Homo sapiens (Human), UniProt P04629). The experiment in a line: Assay of small molecular compounds for inhibiting the activity of TRKA kinase (LANCE TR-FRET). It is filed as biochemical. The gist of the method: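 LANCE TR-FRET with ULight-TK peptide; compounds pre-incubated 5 min with TRKA (2× solution 2 nM), then substrate/ATP added (4× mix: 400 nM peptide, 40 μM ATP). Reaction 60 min at room temperature in dark, 1% DMSO final; stopped, detection developed 60 min, signal read.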
For orientation: Time-resolved FRET reads energy transfer from a long-lived donor to a nearby acceptor.

In a further assay the test system is MHCC97H cells. The experiment in a line: Assay for inhibiting the proliferation of MHCC97H cells (CCK-8). It is filed as cell-based. The note with it: Homo sapiens. The protocol: (§1) In particular, the method of the assay of small molecular compounds for inhibiting cell proliferation is as follows: • 1. Cells cultured to a logarithmic growth phase (adherent cells need to be digested with trypsin and neutralized) were taken, pipetted evenly, transferred to a 15 mL centrifuge tube, and centrifuged at 1000 rpm at room temperature for 4 minutes; • 2. The supernatant was discarded; 5 mL of complete medium was added and pipetted evenly; 10 μL of cell suspension was taken out, mixed well with 10 μL of 0.4% trypan blue, and counted under a cell counter; the proportion of living cells was ensured to be above 90%; • 3. 80 μL of cell suspension per well was seeded into a 96-well plate according to the conditions shown in the attached table, and cultured overnight; in the outer 36 wells of the 96-well plate, no cells were added but only sterile water was added; only the inner 60 wells were used for cell assay and control; • 4. 5×compound dilution: the compounds were serially diluted 3-fold to obtain a total of 9 concentrations; 80-fold overall dilution was completed with complete medium, the resulting concentration was 5 times the final drug concentration, and DMSO concentration was 1.25%; • 5. 20 μL of the corresponding compounds with different concentration gradients were added to each well of assay wells of the 96-well plate; 20 μL of complete medium was added to positive and negative control wells and shaken well; and the final concentration of DMSO in each well was 0.25%; • 6. After 72 hours of incubation, 10 μL of CCK-8 reagent was added to each well and further incubated at 37° C. for 1-2 hours; and the OD value was read at 450 nm; • 7. Cell survival rate (%)=[(As−Ab)/(Ac−Ab)]*100% • As: Assay well (medium containing cells, CCK-8, compound), • Ac: Control well (medium containing cells, CCK-8), • Ab: Blank well (CCK-8, medium without cell and compound), • 8. The values were imported into Graphpad Prism 5 software for IC50 calculation.

The next assay relates to EBC1 cells. As to the kind of experiment: Assay for inhibiting the proliferation of EBC1 cells (CCK-8). It is filed as cell-based. Conditions: Homo sapiens, EBC-1. The protocol:
as §1

For another assay, the system named is Ba/F3-AXL cells. The experiment in a line: Assay for inhibiting the proliferation of Ba/F3-AXL cells (CCK-8). It is filed as cell-based. Conditions: 72 hours of incubation, medium with 100 ng/mL hGas6, CCK-8. The protocol:
The values were then imported into Graphpad Prism 5 software for curve fitting, and IC50 was calculated.

The subject of another assay is Ba/F3 LMNA-NTRK1 cells. As to the kind of experiment: Assay for inhibiting the proliferation of Ba/F3 LMNA-NTRK1 cells (CCK-8). The note with it: Mus musculus, BaF3. It counts as cell-based. The protocol:
as §1, with “5×compound dilution: the compounds were serially diluted 3-fold to obtain a total of 9 concentrations; 80-fold overall dilution was completed with complete medium, the resulting concentration was 5 times the final drug concentration, and DMSO concentration was 1.25%; • 5.” left out

The test system of assay [1] is Ba/F3 LMNA-NTRK1-G595R cells. The experiment in a line: Assay for inhibiting the proliferation of Ba/F3 LMNA-NTRK1-G595R cells (CCK-8). It is filed as cell-based. Conditions: Mus musculus, BaF3. The method, then: as §1
The target of a further assay is c-MET kinase (Homo sapiens (Human), UniProt P08581). The experiment in a line: Assay of small molecular compounds for inhibiting the activity of c-MET kinase (LANCE TR-FRET). It is filed as biochemical. Conditions: read-out: CMET IC50. The gist of the method:
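LANCE TR-FRET assay with c-MET at 1 nM final after a 5 min room-temperature preincubation with compound (11-point, 3-fold series, 2500–0.042 nM final, 4% DMSO). ULight-JAK-1 (Tyr1023) peptide (100 nM final) and ATP (10 μM final) reacted 60 min in the dark. Inhibition was taken relative to controls, then IC50 fitted.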

Structures are written as SMILES.

Sequence of TRKA kinase (P04629 33-796): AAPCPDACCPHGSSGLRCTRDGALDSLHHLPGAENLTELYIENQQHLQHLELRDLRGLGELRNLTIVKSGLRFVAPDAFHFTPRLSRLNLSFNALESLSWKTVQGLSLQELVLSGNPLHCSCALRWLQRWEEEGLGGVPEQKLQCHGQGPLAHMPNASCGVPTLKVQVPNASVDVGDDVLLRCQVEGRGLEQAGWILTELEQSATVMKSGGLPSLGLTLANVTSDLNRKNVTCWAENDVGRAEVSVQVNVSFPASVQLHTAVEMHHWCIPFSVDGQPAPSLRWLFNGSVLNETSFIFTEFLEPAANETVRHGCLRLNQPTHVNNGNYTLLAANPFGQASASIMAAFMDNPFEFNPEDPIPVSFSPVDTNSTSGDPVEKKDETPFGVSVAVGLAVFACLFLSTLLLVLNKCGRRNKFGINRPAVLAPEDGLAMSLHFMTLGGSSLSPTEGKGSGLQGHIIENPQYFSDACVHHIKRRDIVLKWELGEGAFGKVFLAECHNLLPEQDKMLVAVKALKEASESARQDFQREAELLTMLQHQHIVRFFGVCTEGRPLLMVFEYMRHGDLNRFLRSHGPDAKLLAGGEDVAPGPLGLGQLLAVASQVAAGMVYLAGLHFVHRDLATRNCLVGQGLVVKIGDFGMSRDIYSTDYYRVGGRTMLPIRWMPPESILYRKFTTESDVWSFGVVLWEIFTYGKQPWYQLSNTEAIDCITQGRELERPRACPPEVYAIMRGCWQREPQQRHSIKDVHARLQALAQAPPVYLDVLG
Sequence of c-MET kinase (P08581 25-1390): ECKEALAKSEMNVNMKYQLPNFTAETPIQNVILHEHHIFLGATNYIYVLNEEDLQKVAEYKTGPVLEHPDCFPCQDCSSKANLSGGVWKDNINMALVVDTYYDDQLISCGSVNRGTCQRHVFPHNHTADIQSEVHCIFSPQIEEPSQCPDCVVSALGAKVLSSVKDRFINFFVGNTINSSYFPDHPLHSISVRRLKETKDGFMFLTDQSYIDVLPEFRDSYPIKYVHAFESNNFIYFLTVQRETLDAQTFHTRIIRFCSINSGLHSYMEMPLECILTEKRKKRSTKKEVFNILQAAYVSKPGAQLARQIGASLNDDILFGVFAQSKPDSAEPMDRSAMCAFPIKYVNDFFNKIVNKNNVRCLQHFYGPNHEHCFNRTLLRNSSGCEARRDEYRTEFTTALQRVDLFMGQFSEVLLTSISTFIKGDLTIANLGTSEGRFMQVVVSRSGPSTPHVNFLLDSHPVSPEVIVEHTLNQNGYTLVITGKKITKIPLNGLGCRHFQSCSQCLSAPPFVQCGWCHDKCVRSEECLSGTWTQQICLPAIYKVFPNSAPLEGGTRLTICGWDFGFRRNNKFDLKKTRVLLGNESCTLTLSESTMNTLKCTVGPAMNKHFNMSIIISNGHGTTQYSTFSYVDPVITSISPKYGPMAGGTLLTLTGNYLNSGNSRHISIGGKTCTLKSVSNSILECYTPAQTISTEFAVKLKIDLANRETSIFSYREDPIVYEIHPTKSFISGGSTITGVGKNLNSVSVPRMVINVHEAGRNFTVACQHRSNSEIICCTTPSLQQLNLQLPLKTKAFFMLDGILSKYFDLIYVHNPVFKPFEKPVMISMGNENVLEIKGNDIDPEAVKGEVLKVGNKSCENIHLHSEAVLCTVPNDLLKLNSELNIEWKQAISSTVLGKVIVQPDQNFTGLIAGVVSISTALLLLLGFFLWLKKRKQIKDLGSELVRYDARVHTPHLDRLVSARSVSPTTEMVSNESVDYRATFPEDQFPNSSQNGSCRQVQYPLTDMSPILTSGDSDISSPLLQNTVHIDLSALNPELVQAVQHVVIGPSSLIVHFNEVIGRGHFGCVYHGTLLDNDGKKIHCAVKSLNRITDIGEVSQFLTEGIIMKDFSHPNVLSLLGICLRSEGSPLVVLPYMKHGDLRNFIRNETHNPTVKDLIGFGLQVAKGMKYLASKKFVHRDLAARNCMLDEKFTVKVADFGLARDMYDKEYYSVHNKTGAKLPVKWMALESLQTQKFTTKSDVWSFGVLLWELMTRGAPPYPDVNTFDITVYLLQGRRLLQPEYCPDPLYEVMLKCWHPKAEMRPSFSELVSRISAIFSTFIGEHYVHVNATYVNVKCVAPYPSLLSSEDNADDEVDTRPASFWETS

`CCn1cc(C(=O)Nc2cc(F)c(Oc3ccnc4cc(OCCOC)c5c(c34)OCCO5)cc2C(C)C)c(=O)n(-c2ccc(F)cc2)c1=O` [Example 184, N-(5-fluoro-4-((5-(2-methoxyethoxy)-2,3-dihydro-[1,4]dioxino[2,3-f]quinolin-10-yl)oxy)-2-isopropylphenyl)-3-(4-fluorophenyl)-1-ethyl-2,4-dioxo-1,2,3,4-tetrahydropyrimidine-5-carboxamide]: the IC50 on TRKA kinase was 0.05 to 0.5 µM; with MHCC97H cells, over 1 µM.

`CCOc1ccn(-c2ccc(F)cc2)c(=O)c1C(=O)Nc1ccc(Oc2ccnc3cc(OCCCCCCN(C)C)c4c(c23)OCCO4)c(F)c1` [Example 60, N-(4-((5-((6-dimethylamino)hexyloxy)-2,3-dihydro-[1,4]dioxino[2,3-f]quinolin-10-yl)oxy)-3-fluorophenyl)-4-ethoxy-1-(4-fluorophenyl)-2-oxo-1,2-dihydropyridine-3-carboxamide]: the IC50 in the assay on EBC1 cells is at most 0.05 µM; in the assay with Ba/F3-AXL cells it was under 0.05 µM; in the assay with Ba/F3 LMNA-NTRK1 cells, under 0.05 µM; in the assay on MHCC97H cells, 0.05 to 0.2 µM.

For the compound `O=C(Nc1ccc(Oc2ccnc3cc(OCCCN4CCOCC4)c4c(c23)OCCO4)c(F)c1)c1cccn(-c2ccc(F)cc2)c1=O` [Example 20, N-(3-fluoro-4-((5-(3-morpholinopropoxy)-2,3-dihydro-[1,4]dioxino[2,3-f]quinolin-10-yl)oxy)phenyl)-1-(4-fluorophenyl)-2-oxo-1,2-dihydropyridine-3-carboxamide], the IC50 in the assay with EBC1 cells was at most 0.05 µM; in the assay on Ba/F3-AXL cells it was under 0.05 µM; in the assay with Ba/F3 LMNA-NTRK1 cells, under 0.05 µM; in the assay on MHCC97H cells, at most 0.05 µM.

In the case of `CCn1cc(C(=O)Nc2cc(F)c(Oc3ccnc4cc(OC)c5c(c34)OCCO5)cc2C)c(=O)n(-c2ccc(F)cc2)c1=O` [Example 178, N-(5-fluoro-4-((5-methoxy-2,3-dihydro-[1,4]dioxino[2,3-f]quinolin-10-yl)oxy)-2-methylphenyl)-3-(4-fluorophenyl)-1-ethyl-2,4-dioxo-1,2,3,4-tetrahydropyrimidine-5-carboxamide], the IC50 in assay [1] was at most 0.05 µM; at TRKA kinase it was under 0.05 µM; in the assay on Ba/F3 LMNA-NTRK1 cells, under 0.05 µM; in the assay with MHCC97H cells it was at most 0.05 µM; on c-MET kinase, at most 0.05 µM.

On to `CCc1cc(Oc2ccnc3cc(OCCOC)c4c(c23)OCCO4)c(F)cc1NC(=O)c1cn(CC)c(=O)n(-c2ccc(F)cc2)c1=O` [Example 182, N-(5-fluoro-4-((5-(2-methoxyethoxy)-2,3-dihydro-[1,4]dioxino[2,3-f]quinolin-10-yl)oxy)-2-ethylphenyl)-3-(4-fluorophenyl)-1-ethyl-2,4-dioxo-1,2,3,4-tetrahydropyrimidine-5-carboxamide], for which the IC50 at TRKA kinase was 0.05 to 0.5 µM; with MHCC97H cells, at most 0.05 µM; on c-MET kinase, at most 0.05 µM.

Regarding `Cc1cc(Oc2ccnc3ccc4c(c23)OCCO4)c(F)cc1NC(=O)c1cn(C)c(=O)n(-c2ccc(F)cc2)c1=O` [Example 175, N-(4-((2,3-dihydro-[1,4]dioxino[2,3-f]quinolin-10-yl)oxy)-5-fluoro-2-methylphenyl)-3-(4-fluorophenyl)-1-methyl-2,4-dioxo-1,2,3,4-tetrahydropyrimidine-5-carboxamide], the values for the half-maximal inhibitory concentration (IC50) (in assay [1]; on TRKA kinase; in the assay with Ba/F3 LMNA-NTRK1 cells) were 0.05 to 0.2 µM, under 0.05 µM and under 0.05 µM, respectively.

As to `CCn1cc(C(=O)Nc2ccc(Oc3ccnc4cc(OC)c5c(c34)OCCO5)cc2F)c(=O)n(-c2ccc(F)cc2)c1=O` [Example 154, N-(2-fluoro-4-((5-methoxy-2,3-dihydro-[1,4]dioxino[2,3-f]quinolin-10-yl)oxy)phenyl)-3-(4-fluorophenyl)-1-ethyl-2,4-dioxo-1,2,3,4-tetrahydropyrimidine-5-carboxamide], the IC50 in assay [1] is 0.05 to 0.2 µM; against TRKA kinase it was under 0.05 µM; in the assay with Ba/F3 LMNA-NTRK1 cells it was under 0.05 µM; at c-MET kinase it was at most 0.05 µM.

For the compound `CCOc1ccn(-c2ccc(F)cc2)c(=O)c1C(=O)Nc1ccc(Oc2ccnc3cc(OCCCN(C)C)c4c(c23)OCCO4)c(F)c1` [Example 61, N-(4-((5-((3-dimethylamino)propoxy)-2,3-dihydro-[1,4]dioxino[2,3-f]quinolin-10-yl)oxy)-3-fluorophenyl)-4-ethoxy-1-(4-fluorophenyl)-2-oxo-1,2-dihydropyridine-3-carboxamide], the IC50 is at most 0.05 µM with EBC1 cells, under 0.05 µM with Ba/F3-AXL cells, under 0.05 µM in the assay with Ba/F3 LMNA-NTRK1 cells and at most 0.05 µM in the assay on MHCC97H cells.

As for `COCCOc1cc2nccc(Oc3cc(C(C)C)c(NC(=O)c4cn(C)c(=O)n(-c5ccc(F)cc5)c4=O)cc3F)c2c2c1OCCO2` [Example 183, N-(5-fluoro-4-((5-(2-methoxyethoxy)-2,3-dihydro-[1,4]dioxino[2,3-f]quinolin-10-yl)oxy)-2-isopropylphenyl)-3-(4-fluorophenyl)-1-methyl-2,4-dioxo-1,2,3,4-tetrahydropyrimidine-5-carb oxamide], the IC50 was 0.05 to 0.5 µM against TRKA kinase, over 1 µM in the assay with MHCC97H cells and 0.05 to 0.5 µM on c-MET kinase.

Take `CCn1cc(C(=O)Nc2ccc(Oc3ccnc4ccc5c(c34)OCCO5)cc2)c(=O)n(-c2ccc(F)cc2)c1=O` [Example 159, N-(4-((2,3-dihydro-[1,4]dioxino[2,3-f]quinolin-10-yl)oxy)phenyl)-3-(4-fluorophenyl)-1-ethyl-2,4-dioxo-1,2,3,4-tetrahydropyrimidine-5-carboxamide]: the IC50 in assay [1] is over 1 µM; at TRKA kinase, 0.05 to 0.5 µM; with Ba/F3 LMNA-NTRK1 cells it was 0.2 to 1 µM.

Take `CCc1cc(Oc2ccnc3cc(OCCOC)c4c(c23)OCCO4)c(F)cc1NC(=O)c1cn(C)c(=O)n(-c2ccc(F)cc2)c1=O` [Example 181, N-(5-fluoro-4-((5-(2-methoxyethoxy)-2,3-dihydro-[1,4]dioxino[2,3-f]quinolin-10-yl)oxy)-2-ethylphenyl)-3-(4-fluorophenyl)-1-methyl-2,4-dioxo-1,2,3,4-tetrahydropyrimidine-5-carboxamide]: the IC50 against TRKA kinase was under 0.05 µM; in the assay on MHCC97H cells, 0.05 to 0.2 µM; at c-MET kinase it was at most 0.05 µM.

On to `Cn1cc(C(=O)Nc2ccc(Oc3ccnc4ccc5c(c34)OCCO5)cc2)c(=O)n(-c2ccc(F)cc2)c1=O` [Example 158, N-(4-((2,3-dihydro-[1,4]dioxino[2,3-f]quinolin-10-yl)oxy)phenyl)-3-(4-fluorophenyl)-1-methyl-2,4-dioxo-1,2,3,4-tetrahydropyrimidine-5-carboxamide], for which the IC50 in assay [1] is over 1 µM; against TRKA kinase, 0.05 to 0.5 µM; with Ba/F3 LMNA-NTRK1 cells it was 0.2 to 1 µM.
